US20110196000A1, “Use of succinate dehydrogenase (SDH) inhibitors in the treatment of plant species from the family of the true grasses” (Bayer CropScience AG, priority 2010, published 2011)

How the values were obtained:
Format in all cases: in vivo
[1] = system: infection-free wheat plants of the cultivar Passat; assay: Glasshouse trial: green leaf area by visual scoring; conditions: glasshouse
Experimental: (§1) In a glasshouse trial under controlled conditions, the effect of bixafen was investigated on the physiology, morphology and abiotic stress tolerance of infection-free wheat plants of the cultivar […] plants were grown in 10-litre containers over a period of 4 months. The substrate used was standard earth type ED 73 (Fröndenberg, Germany)+C-Horizont+Sand (4:2:1). The supply of nutrient to the plants took place by feeding with a 0.2% strength Flory 2 liquid fertilizer solution (from Euflor, Munich) once every two weeks. The plants were supplied with water as required. In each component of the trial, 10 repetitions were carried out. To prevent infestation with powdery mildew, Proquinazid (Talius® was applied once. The incidence of aphids and spider mites was avoided by treatments with Karate®, Bulldock® and Sumicidin®. The products under test were applied to the plants, in the form of sequential spray sequences (BBCH 39 and 59). The spray volume was 300 l of water per hectare. [table] The duration of the green coloration of the leaf area was captured on the basis of regular visual scoring of the fraction of the green leaf area.

[2] = system: infection-free wheat plants of the cultivar Passat; assay: Glasshouse trial: time of heading (ear emergence); set-up: time of heading of wheat (ears emerged): unit not given here
Experimental: (§2) In a glasshouse trial under controlled conditions, the effect of bixafen was investigated on the physiology, morphology and abiotic stress tolerance of infection-free wheat plants of the cultivar […] plants were grown in 10-litre containers over a period of 4 months. The substrate used was standard earth type ED 73 (Fröndenberg, Germany)+C-Horizont+Sand (4:2:1). The supply of nutrient to the plants took place by feeding with a 0.2% strength Flory 2 liquid fertilizer solution (from Euflor, Munich) once every two weeks. The plants were supplied with water as required. In each component of the trial, 10 repetitions were carried out.

[3] = system: infection-free wheat plants of the cultivar Passat; assay: Glasshouse trial: temperature of ears and leaves as measure of transpiration activity
Experimental: as §2

wheat variety Ritmo [4] = assay: Plot trial: yield components; conditions: sprays at BBCH 39 and 59
wheat variety Ritmo [5] = assay: Plot trial: chlorophyll content of leaves (pigment extraction method of Ziegler and Ehle)
wheat variety Ritmo [6] = assay: Plot trial in Germany: green leaf area by visual scoring; conditions: sprays at BBCH 39 and 59
Experimental: In Germany a plot trial was set up with the wheat variety Ritmo in order to investigate the effect of bixafen on the physiology, morphology and abiotic stress tolerance of wheat plants under realistic agricultural conditions. The products under test were applied to the plants, in the form of sequential spray sequences (BBCH 39 and 59). The spray volume was 400 l of water per hectare. In each trial component, 5 repetitions were carried out. [table] The duration of green coloration of the leaf area was captured by regular visual scoring of the fraction of green leaf area.

[7] = system: infection-free wheat plants of the cultivar Passat; assay: Glasshouse trial: yield components; conditions: glasshouse, sprays at BBCH 39 and 59
[8] = system: infection-free wheat plants of the cultivar Passat; assay: Glasshouse trial: gas exchange activity of wheat ears; conditions: development stage BBCH 75
Experimental: as §2

[9] = system: infection-free wheat plants of the cultivar Passat; assay: Glasshouse trial: size of the flag leaf; conditions: at BBCH 83-85
Experimental: as §1, with “Morphological parameters measured, additionally, were the length and width, i.e. the size” for “The duration”, “flag leaf. This was greatest with” for “green coloration of”, “succinate dehydrogenase (SDH) inhibitor bixafen, in comparison to” for “leaf area was captured on”, “other comparison fungicides.” for “basis of regular visual scoring of the fraction of the green leaf area.”

[10] = 68 days after second fungicide application (so in the source)
[11] = 75 days after second fungicide application (so in the source)
[12] = 82 days after second fungicide application (so in the source)
[13] = 89 days after second fungicide application (so in the source)
[14] = 96 days after second fungicide application (so in the source)
[15] = 103 days after second fungicide application (so in the source)
[16] = 110 days after second fungicide application (so in the source)
[17] = 117 days after second fungicide application (so in the source)
[18] = 7 days after second fungicide application
[19] = 14 days after second fungicide application
[20] = 21 days after second fungicide application
[21] = 28 days after second fungicide application
[22] = 35 days after second fungicide application
[23] = 42 days after second fungicide application

SMILES: CO/N=C(/C1=NOCCO1)c1ccccc1Oc1ncnc(Oc2ccccc2Cl)c1F [Fluoxastrobin]
- green leaf area of the flag leaf (F) [1, 10]: 100 % leaf area
- green leaf area of the second-from-top leaf (F-1) [1, 10]: 100 % leaf area
- green leaf area of the third-from-top leaf (F-2) [1, 10]: 100 % leaf area
- green leaf area of the flag leaf (F) [1, 11]: 100 % leaf area
- green leaf area of the second-from-top leaf (F-1) [1, 11]: 100 % leaf area
- green leaf area of the third-from-top leaf (F-2) [1, 11]: 95 % leaf area
- green leaf area of the flag leaf (F) [1, 12]: 100 % leaf area
- green leaf area of the second-from-top leaf (F-1) [1, 12]: 95 % leaf area
- green leaf area of the third-from-top leaf (F-2) [1, 12]: 82 % leaf area
- green leaf area of the flag leaf (F) [1, 13]: 95 % leaf area
- green leaf area of the second-from-top leaf (F-1) [1, 13]: 84 % leaf area
- green leaf area of the third-from-top leaf (F-2) [1, 13]: 54 % leaf area
- green leaf area of the flag leaf (F) [1, 14]: 85 % leaf area
- green leaf area of the second-from-top leaf (F-1) [1, 14]: 56 % leaf area
- green leaf area of the third-from-top leaf (F-2) [1, 14]: 29 % leaf area
- green leaf area of the flag leaf (F) [1, 15]: 60 % leaf area
- green leaf area of the second-from-top leaf (F-1) [1, 15]: 30 % leaf area
- green leaf area of the third-from-top leaf (F-2) [1, 15]: 18 % leaf area
- green leaf area of the flag leaf (F) [1, 16]: 37 % leaf area
- green leaf area of the second-from-top leaf (F-1) [1, 16]: 18 % leaf area
- green leaf area of the third-from-top leaf (F-2) [1, 16]: 7 % leaf area
- green leaf area of the flag leaf (F) [1, 17]: 12 % leaf area
- green leaf area of the second-from-top leaf (F-1) [1, 17]: 6 % leaf area
- green leaf area of the third-from-top leaf (F-2) [1, 17]: 0 % leaf area
- time of heading of wheat (ears emerged) ([2]; 45 days after sowing): 11.4
- time of heading of wheat (ears emerged) ([2]; 50 days after sowing): 33.1
- time of heading of wheat (ears emerged) ([2]; 55 days after sowing): 43.8
- time of heading of wheat (ears emerged) ([2]; 60 days after sowing): 49.9
- time of heading of wheat (ears emerged) ([2]; 65 days after sowing): 61.1
- time of heading of wheat (ears emerged) ([2]; 70 days after sowing): 76.4
- time of heading of wheat (ears emerged) ([2]; 75 days after sowing): 87.8
- time of heading of wheat (ears emerged) ([2]; 80 days after sowing): 93.1
- time of heading of wheat (ears emerged) ([2]; 85 days after sowing): 97.1
- Temperature (as a measure of the transpiration activity) ([3]; BBCH 75, ear): 23.1 °C
- Temperature (as a measure of the transpiration activity) ([3]; BBCH 75, leaf): 22.3 °C
- Temperature (as a measure of the transpiration activity) ([3]; BBCH 80, ear): 18.9 °C
- Temperature (as a measure of the transpiration activity) ([3]; BBCH 80, leaf): 16.5 °C
- Temperature (as a measure of the transpiration activity) ([3]; BBCH 85, ear): 24.8 °C
- Temperature (as a measure of the transpiration activity) ([3]; BBCH 85, leaf): 23.4 °C
- Temperature (as a measure of the transpiration activity) ([3]; BBCH 90, ear): 23.9 °C
- Temperature (as a measure of the transpiration activity) ([3]; BBCH 90, lear (so in the source)): 22.7 °C
- Ears/m^2 (wheat variety Ritmo [4]): 409
- Harvest Index (wheat variety Ritmo [4]): 58.1
- Straw (wheat variety Ritmo [4]): 581 g m^−2
- TKM (thousand-kernel mass) (wheat variety Ritmo [4]): 45.8 g
- Yield (wheat variety Ritmo [4]): 8.2 t ha^−1
- Chlorophyll content (wheat variety Ritmo [5]; BBCH 75 (mature milk), leaf F): 1924 µg/g
- Chlorophyll content (wheat variety Ritmo [5]; BBCH 75 (mature milk), leaf F-1): 1671 µg/g
- Chlorophyll content (wheat variety Ritmo [5]; BBCH 75 (mature milk), leaf F-2): 1126 µg/g
- Chlorophyll content (wheat variety Ritmo [5]; BBCH 85 (mature dough), leaf F): 630 µg/g
- Chlorophyll content (wheat variety Ritmo [5]; BBCH 85 (mature dough), leaf F-1): 534 µg/g
- Chlorophyll content (wheat variety Ritmo [5]; BBCH 85 (mature dough), leaf F-2): 415 µg/g
- green leaf area of the flag leaf (wheat variety Ritmo [6]; [18]): 98.7 % leaf area
- green leaf area of the second-from-top leaf (F-1) (wheat variety Ritmo [6]; [18]): 98.8 % leaf area
- green leaf area of the third-from-top leaf (F-2) (wheat variety Ritmo [6]; [18]): 96.3 % leaf area
- green leaf area of the flag leaf (wheat variety Ritmo [6]; [19]): 98.7 % leaf area
- green leaf area of the second-from-top leaf (F-1) (wheat variety Ritmo [6]; [19]): 98.0 % leaf area
- green leaf area of the third-from-top leaf (F-2) (wheat variety Ritmo [6]; [19]): 95.5 % leaf area
- green leaf area of the flag leaf (wheat variety Ritmo [6]; [20]): 98.3 % leaf area
- green leaf area of the second-from-top leaf (F-1) (wheat variety Ritmo [6]; [20]): 96.1 % leaf area
- green leaf area of the third-from-top leaf (F-2) (wheat variety Ritmo [6]; [20]): 92.1 % leaf area
- green leaf area of the flag leaf (wheat variety Ritmo [6]; [21]): 95.8 % leaf area
- green leaf area of the second-from-top leaf (F-1) (wheat variety Ritmo [6]; [21]): 93.5 % leaf area
- green leaf area of the third-from-top leaf (F-2) (wheat variety Ritmo [6]; [21]): 88.5 % leaf area
- green leaf area of the flag leaf (wheat variety Ritmo [6]; [22]): 63.0 % leaf area
- green leaf area of the second-from-top leaf (F-1) (wheat variety Ritmo [6]; [22]): 47.0 % leaf area
- green leaf area of the third-from-top leaf (F-2) (wheat variety Ritmo [6]; [22]): 31.5 % leaf area
- green leaf area of the flag leaf (wheat variety Ritmo [6]; [23]): 23.7 % leaf area
- green leaf area of the second-from-top leaf (F-1) (wheat variety Ritmo [6]; [23]): 9.8 % leaf area
- green leaf area of the third-from-top leaf (F-2) (wheat variety Ritmo [6]; [23]): 1.9 % leaf area
- green leaf area of the second-from-top leaf (F-1) (wheat variety Ritmo [6]; 49 days after second fungicide application): 0 % leaf area
- Ears/pot [7]: 41.0
- Harvest Index [7]: 29.0%
- Kernels/ear [7]: 21.9
- Straw [7]: 74.5 g/pot
- TKM (thousand-kernel mass) [7]: 34.3 g
- Yield [7]: 30.5 g/pot
- Photosynthesis (gas exchange activity of wheat ears) [8]: −2.44 a CO2 per ear
- Respiration (gas exchange activity of wheat ears) [8]: 2.96 b CO2 per ear
- Length of the flag leaf [9]: 25.6 cm
- Width of the flag leaf [9]: 1.4 cm
- Area of the flag leaf ([9]; calculated using the formula A = 0.67 × length × width): 24.01 cm^2
- Area [rel.] of the flag leaf ([9]; untreated = 100): 110 rel.
